Assay results published in ChEMBL document CHEMBL1152925, “Vladimuliecins A and B: cytotoxic pentacyclic pregnanols from Vladimiria muliensis” (J Nat Prod, 2009).

How the values were obtained:
Type in all cases: functional, cell-based
[1] = test system: HL-60; experiment: Cytotoxicity against human HL60 cells after 48 hrs by SRB assay
[2] = test system: SMMC-7721; experiment: Cytotoxicity against human SMMC7721 cells after 48 hrs by SRB assay
[3] = test system: HeLa; experiment: Cytotoxicity against human HeLa cells after 48 hrs by SRB assay
[4] = Homo sapiens, HL-60, 48 h, read-out: IC50
[5] = Homo sapiens, SMMC-7721, 48 h, read-out: IC50

Compound | IC50 [1, 4] | IC50 ([2]; smmc-7721) | IC50 ([3]; hela) | IC50 [2, 5] | IC50 ([3]; Homo sapiens, HeLa, 48 h, read-out: IC50) | IC50 ([1]; hl-60)
CC(=O)O[C@H](C)[C@H]1CC[C@@]2(O)[C@]1(C)CC[C@@H]1[C@@]3(C)CC[C@@H]4C[C@@]43[C@H](O)C[C@]12O [VLADIMULIECIN B] | 88 µM | 104 µM | 121 µM |  |  | 
CO[C@@]12[C@H](COC(N)=O)C3=C(C(=O)C(C)=C(N)C3=O)N1C[C@@H]1N[C@@H]12 [MITOMYCIN] | 1.5 µM |  |  | 5.4 µM | 3.3 µM | 
CC(=O)O[C@H](C)[C@H]1CC[C@@]2(O)[C@]1(C)CC[C@@H]1[C@@]3(C)CC[C@@H]4C[C@@]43[C@H](OC(C)=O)C[C@]12O [VLADIMULIECIN A] | 99 µM |  | 167 µM | 98.6 µM |  | 
C[C@@H](O)[C@H]1CC[C@@]2(O)[C@]1(C)CC[C@@H]1[C@@]3(C)CC[C@@H]4C[C@@]43[C@H](O)C[C@]12O |  | 101 µM | 165 µM |  |  | 138 µM
